The experiment concerns IL-4 stimulated expression of CD23 in human Ramos B cells (JAK-1 and JAK-3). Description: Assay for Ramos B-Cell Line Stimulated with IL-4 (CD23 upregulation, FACS). It is filed as cell-based. Particulars: Ramos B-cell line stimulated with IL-4, CD23 expression by FACS, read-out: IC50, Example 41. The text has this:
One means of assaying for such inhibition is detection of the effect of the 2,4-substituted pyrimidinediamine compounds on the upregulation of downstream gene products. In the Ramos/IL4 assay, B-cells are stimulated with the cytokine Interleukin-4 (IL-4) leading to the activation of the JAK/Stat pathway through phosphorylation of the JAK family kinases, JAK1 and JAK3, which in turn phosphorylate and activate the transcription factor Stat-6. […] To study the effect of inhibitors (e.g., the 2,4-substituted pyrimindinediamine compounds described herein) on the JAK1 and JAK3 kinases, human Ramos B cells are stimulated with human IL-4. Twenty to 24 hours post stimulation, cells are stained for upregulation of CD23 and analyzed using flow cytometry (FACS). […] An exemplary assay of this type is described in greater detail in Example 41
B-cells stimulated with cytokine Interleukin-4 (IL-4) activate the JAK/Stat pathway through phosphorylation of the JAK family kinases, JAK-1 and JAK-3, which in turn phosphorylate and activate the transcription factor Stat-6. […] To study the effect of inhibitors on the JAK family kinases, human Ramos B cells are stimulated with human IL-4.
The Ramos B-cell line was acquired from ATCC (ATCC Catalog No. CRL-1596). The cells were cultured in RPMI 1640 (Cellgro, MediaTech, Inc., Herndon, VA, Cat No. 10-040-CM) with 10% fetal bovine serum (FBS), heat inactivated (JRH Biosciences, Inc, Lenexa, Kansas, Cat No. 12106-500M) according to ATCC propagation protocol. Cells were maintained at a density of 3.5×10^5. The day before the experiment, Ramos B-cells were diluted to 3.5×10^5 cells/mL to ensure that they were in a logarithmic growth phase.
Cells were spun down and suspended in RPMI with 5% serum. 5×10^4 cells were used per point in a 96-well tissue culture plate. Cells were pre-incubated with compound or DMSO (Sigma-Aldrich, St. Louis, MO, Cat No. D2650) vehicle control for 1 hour in a 37° C. incubator. Cells were then stimulated with IL-4 (Peprotech Inc., Rocky Hill, NJ, Cat No. 200-04) for a final concentration of 50 units/mL for 20-24 hours. Cells were then spun down and stained with anti-CD23-PE(BD Pharmingen, San Diego, CA, Cat No. 555711) and analyzed by FACS. Detection was performed using a BD LSR I System Flow Cytometer, purchased from Becton Dickinson Biosciences of San Jose, California The IC50 calculated based on the results of this assay are provided in TABLE XII.
For orientation: A flow cytometer gives signals particle by particle.

Structures are written as SMILES. Where two headings read alike, the source gives them in different places.

A word on the IC50: it is the point on the concentration scale where inhibition reaches its midpoint. In the case of `NC(=O)COc1ccc(Nc2nc(Nc3cccc(S(N)(=O)=O)c3)ncc2F)cc1CO` [Compound I-107, N4-(4-Aminocarbonylmethoxy-3-hydroxymethylphenyl]-N2-(3-aminosulfonylphenyl)-5-fluoro-2,4-pyrimidinediamine], for the setting “Homo sapiens, Ramos”, the IC50 was determined as 1510 nM.

With `NC(=O)COc1ccc(Nc2nc(Nc3cccc(S(N)(=O)=O)c3)ncc2F)cc1` [Compound I-111, N4-(4-Aminocarbonylmethoxy)phenyl-N2-(3-aminosulfonyl)phenyl-5-fluoro-2,4-pyrimidinediamine], the IC50 stood at 890 nM.

As to `CN1CCN(S(=O)(=O)c2cccc(Nc3ncc(F)c(Nc4ccc(OCC(N)=O)cc4)n3)c2)CC1` [Compound I-112, N4-(4-Aminocarbonylmethoxy)phenyl-5-fluoro-N2-[3-(4-methylpiperazin-1-yl)sulfonyl]phenyl-2,4-pyrimidinediamine], the IC50 was 2360 nM.

For `NC(=O)COc1ccc(Nc2nc(Nc3ccc(S(N)(=O)=O)cc3)ncc2F)cc1` [Compound I-115, N4-(4-Aminocarbonylmethoxy)phenyl-N2-(4-aminosulfonyl)phenyl-5-fluoro-2,4-pyrimidinediamine], the IC50 stood at 793 nM.

For the molecule `CC(C)(Oc1ccc(Nc2nc(Nc3ccc(S(N)(=O)=O)cc3)ncc2F)cc1)C(N)=O` [Compound I-125, N4-[4-(1-Aminocarbonyl-1-methyl)ethoxy]phenyl-N2-(4-aminosulfonyl)phenyl-5-fluoro-2,4-pyrimidinediamine], the IC50 amounted to 538 nM.

As for `CN(C)C(=O)COc1ccc(Nc2nc(Nc3ccc(S(N)(=O)=O)cc3)ncc2F)cc1` [Compound I-128, N2-(4-Aminosulfonylphenyl)-N4-(4-dimethylaminocarbonylmethoxyphenyl)-5-fluoro-2,4-pyrimidinediamine], where the note is “Homo sapiens, Ramos”, the IC50 stood at 871 nM.

With `CN(C)C(=O)COc1ccc(Nc2nc(Nc3cccc(S(N)(=O)=O)c3)ncc2F)cc1` [Compound I-129, N2-(3-Aminosulfonylphenyl)-N4-(4-dimethylaminocarbonylmethoxyphenyl)-5-fluoro-2,4-pyrimidinediamine], under “Homo sapiens, Ramos”, the IC50 was 612 nM.

`CN(C)C(=O)COc1ccc(Nc2nc(Nc3ccc(Cl)c(S(N)(=O)=O)c3)ncc2F)cc1Cl` [Compound I-140, N2-(3-Aminosulfonyl-4-chlorophenyl)-N4-(3-chloro-4-dimethylaminocarbonylmethoxyphenyl)-5-fluoro-2,4-pyrimidinediamine]: the IC50 (Homo sapiens, Ramos) amounted to 388 nM.

Take `CNC(=O)COc1ccc(Nc2nc(Nc3ccc(S(N)(=O)=O)cc3)ncc2F)cc1` [Compound I-143, N2-(4-Aminosulfonylphenyl)-5-fluoro-N4-(4-methylaminocarbonylmethoxyphenyl)-2,4-pyrimidinediamine]: the half-maximal inhibitory concentration (IC50) (Homo sapiens, Ramos) came out at 1190 nM.

`CNC(=O)COc1ccc(Nc2nc(Nc3cccc(S(N)(=O)=O)c3)ncc2F)cc1` [Compound I-144, N2-(3-Aminosulfonylphenyl)-5-fluoro-N4-(4-methylaminocarbonylmethoxyphenyl)-2,4-pyrimidinediamine]: for the setting “Homo sapiens, Ramos”, the IC50 was determined as 1010 nM.

With `CNC(=O)COc1ccc(Nc2nc(Nc3ccc(S(N)(=O)=O)cc3)ncc2F)cc1Cl` [Compound I-146, N2-(4-Aminosulfonylphenyl)-N4-(3-chloro-4-methylaminocarbonylmethoxyphenyl)-5-fluoro-2,4-pyrimidinediamine], the IC50 (Homo sapiens, Ramos) amounted to 364 nM.

On to `CCN(CC)CCNS(=O)(=O)c1cccc(Nc2ncc(F)c(Nc3ccc(OCc4ccccn4)cc3)n2)c1` [Compound I-166, N2-[3-(2-N,N-Diethylaminoethyl)aminosulfonylphenyl)-5-fluoro-N4-[4-(2-pyridinyl)methyleneoxyphenyl]-2,4-pyrimidinediamine], for which the IC50 was found to be 616 nM.

As for `Cc1cc(Nc2nc(Nc3cccc(S(N)(=O)=O)c3)ncc2F)ccc1OCc1ccccn1` [Compound I-167, N2-(3-Aminosulfonylphenyl)-5-fluoro-N4-[(4-((pyridin-2-yl)methoxy)-3-methylphenyl)]-2,4-pyrimidinediamine], under “Homo sapiens, Ramos”, the IC50 was 142 nM.

For `CCOc1cc(Nc2nc(Nc3ccc(C)c(S(=O)(=O)NC)c3)ncc2F)ccc1-c1ccccn1` [Compound I-170, 5-Fluoro-N2-[3-N-(methyl)aminosulfonyl-4-methylphenyl]-N4-[4-(2-pyridinyl)-3-methylmethyleneoxyphenyl]-2,4-pyrimidinediamine], the 50% inhibitory concentration (IC50) was 451 nM.

Turning to `Cc1cnc(Nc2ccc(S(N)(=O)=O)cc2)nc1Nc1ccc(OCc2ccccn2)cc1` [Compound I-181, N2-(4-Aminosulfonylphenyl)-5-methyl-N4-[4-(2-pyridinyl)methyleneoxyphenyl]-2,4-pyrimidinediamine], the IC50 was 13 nM.

As for `NS(=O)(=O)c1ccc(Nc2ncc(F)c(Nc3cccc(OCc4cccnc4)c3)n2)cc1` [Compound I-185, N2-(4-Aminosulfonylphenyl)-5-fluoro-N4-[3-(3-pyridinyl)methyleneoxyphenyl]-2,4-pyrimidinediamine], the IC50 was found to be 298 nM.

Turning to `CCN(CC)CCNS(=O)(=O)c1cccc(Nc2ncc(F)c(Nc3cccc(OCc4cccnc4)c3)n2)c1` [Compound I-187, N2-[3-(2-N,N-Diethylaminoethyl)aminosulfonylphenyl)-5-fluoro-N4-[3-(3-pyridinyl)methyleneoxyphenyl]-2,4-pyrimidinediamine], the IC50 stood at 2910 nM.

Take `Cc1ccc(Nc2ncc(F)c(Nc3ccc(OCc4n[nH]c(=O)[nH]4)cc3)n2)cc1S(N)(=O)=O` [Compound I-202, N2-(3-Aminosulfonyl-4-methylphenyl)-5-fluoro-N4-[4-(2,4-dihydro-3-oxo-1,2,4-triazol-5-yl)methyleneoxyphenyl]-2,4-pyrimidinediamine]: the IC50 turned out to be 3080 nM.

For the molecule `NS(=O)(=O)c1cccc(Nc2ncc(F)c(Nc3ccc(OCCN4CCOCC4)cc3)n2)c1` [Compound I-206], the IC50 is 726 nM.

Regarding `Cc1ccc(Nc2nc(Nc3cccc(S(N)(=O)=O)c3)ncc2F)cc1OCC(=O)N1CCOCC1` [Compound I-208, N2-(3-Aminosulfonylphenyl)-5-fluoro-N4-[4-methyl-3-(2-morpholinocarbonylmethyleneoxy)phenyl]-2,4-pyrimidinediamine], the IC50 came to 1400 nM.

With `NS(=O)(=O)c1ccc(Nc2ncc(F)c(Nc3ccc(OCC(=O)N4CCOCC4)cc3)n2)cc1` [Compound I-210, N2-(4-Aminosulfonylphenyl)-5-fluoro-N4-[4-(2-morpholin-4-yl-2-oxo-ethoxy)phenyl]-2,4-pyrimidinediamine], the IC50 (Homo sapiens, Ramos) is 866 nM.

Turning to `NS(=O)(=O)c1cccc(Nc2ncc(F)c(Nc3ccc(OCC(=O)N4CCOCC4)cc3)n2)c1` [Compound I-211, N2-(3-Aminosulfonylphenyl)-5-fluoro-N4-[4-(2-morpholin-4-yl-2-oxo-ethoxy)phenyl]-2,4-pyrimidinediamine], where the note is “Homo sapiens, Ramos”, the IC50 stood at 1050 nM.

`Cc1ccc(Nc2ncc(F)c(Nc3ccc(OCC(=O)N4CCOCC4)cc3)n2)cc1S(N)(=O)=O` [Compound I-212, N2-(3-Aminosulfonyl-4-methylphenyl)-5-fluoro-N4-[4-(2-morpholin-4-yl-2-oxo-ethoxy)phenyl]-2,4-pyrimidinediamine]: the IC50 (Homo sapiens, Ramos) came to 758 nM.

With `CCC(=O)NS(=O)(=O)c1cc(Nc2ncc(F)c(Nc3ccc(OCC(=O)OC)cc3)n2)ccc1C` [Compound I-213, 5-Fluoro-N4-(4-methoxycarbonylmethoxyphenyl)-N2-(4-methyl-3-propionylaminosulfonylphenyl)-2,4-pyrimidinediamine], under “Homo sapiens, Ramos”, the IC50 was found to be 11500 nM.

Turning to `COC(=O)CNS(=O)(=O)c1cccc(Nc2ncc(F)c(Nc3ccc(OCc4cc(C)on4)cc3)n2)c1` [Compound I-215, 5-Fluoro-N2-[3-(N-methoxycarbonylmethylene)aminosulfonylphenyl]-N4-[4-(5-methylisoxazol-3-yl)methyleneoxyphenyl]-2,4-pyrimidinediamine], the IC50 was determined as 976 nM.

On to `Cc1cc(COc2ccc(N(C)c3nc(Nc4ccc(C)c(S(N)(=O)=O)c4)ncc3F)cc2)no1` [Compound I-225, N2-(3-Aminosulfonyl-4-methylphenyl)-5-fluoro-N4-methyl-N4-[4-(5-methylisoxazol-3-yl)methyleneoxyphenyl]-2,4-pyrimidinediamine], for which the IC50 is 700 nM.

For `Cc1cc(COc2ccc(N(C)c3nc(Nc4ccc(C)c(S(N)(=O)=O)c4)ncc3F)cc2F)no1` [Compound I-226, N2-(3-Aminosulfonyl-4-methylphenyl)-5-fluoro-N4-[3-fluoro-4-(5-methylisoxazol-3-yl)methyleneoxyphenyl]-N4-methyl-2,4-pyrimidinediamine], the IC50 was found to be 498 nM.

The record behind these values is US11827628B2, “Compositions and methods for inhibition of the JAK pathway” (Rigel Pharmaceuticals, Inc., priority 2005, dated 2023).
